Measurements published in US20070208052A1, “Aryloxy and arylalkyleneoxy substituted thiazoloquinolines and thiazolonaphthyridines” (priority 2004, published 2007).

Row | Structure (SMILES) | melting point [°C]
1 | CCCc1nc2c(N)nc3cc(OCc4ccccc4)ccc3c2s1 [Example 1, 7-Benzyloxy-2-propylthiazolo[4,5-c]quinolin-4-amine] | 175 to 178
2 | CCCc1nc2c(N)nc3cc(OCc4ccc(F)cc4)ccc3c2s1 [Example 2, 7-(4-Fluorobenzyloxy)-2-propylthiazolo[4,5-c]quinolin-4-amine] | 189 to 192
3 | CCCc1nc2c(N)nc3cc(OCCc4ccc(F)cc4)ccc3c2s1 [Example 3, 7-[2-(4-Fluorophenyl)ethoxy]-2-propylthiazolo[4,5-c]quinolin-4-amine] | 145 to 148
4 | CCCc1nc2c(N)nc3cc(OCCOCc4ccccc4)ccc3c2s1 [Example 4, 7-[2-(Benzyloxy)ethoxy]-2-propylthiazolo[4,5-c]quinolin-4-amine] | 142 to 145
5 | CCCc1nc2c(N)nc3cc(OCc4ccoc4)ccc3c2s1 [Example 5, 7-(Furan-3-ylmethyloxy)-2-propylthiazolo[4,5-c]quinolin-4-amine] | 170 to 171
6 | CCc1nc2c(N)nc3cc(OCc4ccccc4)ccc3c2s1 [Example 29, 7-Benzyloxy-2-ethylthiazolo[4,5-c]quinolin-4-amine] | 208 to 209
7 | CCc1nc2c(N)nc3cc(OCCCc4cccnc4)ccc3c2s1 [Example 30, 2-Ethyl-7-[3-(pyridin-3-yl)propoxy]thiazolo[4,5-c]quinolin-4-amine] | 172 to 173
8 | CCCc1nc2c(N)nc3cc(OCc4cscn4)ccc3c2s1 [Example 31, 2-Propyl-7-[(thiazol-4-yl)methoxy]thiazolo[4,5-c]quinolin-4-amine] | 218 to 220
9 | CCCc1nc2c(N)nc3cc(OCc4cccnc4)ccc3c2s1 [Example 32, 2-Propyl-7-[(pyridin-3-yl)methoxy]thiazolo[4,5-c]quinolin-4-amine] | 167 to 169
10 | CCCc1nc2c(N)nc3cc(OCCn4cccc4)ccc3c2s1 [Example 33, 2-Propyl-7-[2-(pyrrol-1-yl)ethoxy]thiazolo[4,5-c]quinolin-4-amine] | 158 to 160
11 | CCCc1nc2c(N)nc3cc(OCCCn4cccc4)ccc3c2s1 [Example 34, 2-Propyl-7-[3-(pyrrol-1-yl)propoxy]thiazolo[4,5-c]quinolin-4-amine] | 152 to 154
12 | CCCc1nc2c(N)nc3cc(OCc4c(C)noc4C)ccc3c2s1 [Example 35, 7-[(3,5-Dimethylisoxazol-4-yl)methoxy]-2-propylthiazolo[4,5-c]quinolin-4-amine] | 178 to 180
13 | CCc1nc2c(N)nc3cc(OCc4ccc(C(F)(F)F)o4)ccc3c2s1 [Example 36, 2-Ethyl-7-{[5-(trifluoromethyl)furan-2-yl]methoxy} thiazolo[4,5-c]quinolin-4-amine] | 152 to 154
14 | CCc1nc2c(N)nc3cc(OCc4ccc(S(=O)(=O)NCCc5cc6ccccc6[nH]5)cc4)ccc3c2s1 [Example 37, 4-{[(4-Amino-2-ethylthiazolo[4,5-c]quinolin-7-yl)oxy]methyl}-N-[2-(1H-indol-2-yl)ethyl]benzenesulfonamide] | 100 to 101
15 | CCc1nc2c(N)nc3cc(OCc4cccc(Cl)n4)ccc3c2s1 [Example 38, 7-[(6-Chloropyridin-2-yl)methoxy]-2-ethylthiazolo[4,5-c]quinolin-4-amine] | 229 to 230
16 | CCc1nc2c(N)nc3cc(OCCc4c(C)n[nH]c4C)ccc3c2s1 [Example 39, 7-[2-(3,5-Dimethyl-1H-pyrazol-4-yl)ethoxy]-2-ethylthiazolo[4,5-c]quinolin-4-amine] | 195 to 197
17 | CCc1nc2c(N)nc3cc(OCCCn4cc(CO)nn4)ccc3c2s1 [Example 40, (1-{[3-(4-Amino-2-ethylthiazolo[4,5-c]quinolin-7-yl)oxy]propyl}-1H-[1,2,3]triazol-4-yl)methanol] | 194 to 197
18 | CCc1nc2c(N)nc3cc(OCc4nc5ccccc5s4)ccc3c2s1 [Example 41, 7-[(1,3-Benzothiazol-2-yl)methoxy]-2-ethylthiazolo[4,5-c]quinolin-4-amine] | 211 to 212
19 | CCc1nc2c(N)nc3cc(OCc4ccc(C(=O)OC)o4)ccc3c2s1 [Example 42, Methyl 5-{[(4-amino-2-ethylthiazolo[4,5-c]quinolin-7-yl)oxy]methyl}-2-furoate] | 184 to 186
20 | CCc1nc2c(N)nc3cc(OCc4cccc(CO)n4)ccc3c2s1 [Example 43] | 186 to 187
21 | CCc1nc2c(N)nc3cc(Oc4ccc(C(=O)OC)cn4)ccc3c2s1 [Example 44, Methyl 6-[(4-amino-2-ethylthiazolo[4,5-c]quinolin-7-yl)oxy]nicotinate] | 213 to 214
22 | CCc1nc2c(N)nc3cc(OCCc4c[nH]c5ccccc45)ccc3c2s1 [Example 45, 2-ethyl-7-[2-(1H-indol-3-yl)ethoxy]thiazolo[4,5-c]quinolin-4-amine] | 218 to 220
